Converted amounts (≈) assume the structure as drawn. Where two headings read alike, the source gives them in different places. Blank lines part the entries; values can stand above or below the molecule they belong to. Where a SMILES comes first, the peptide text is derived from it. Bridges are numbered along the chain shown (N, C = ends). [ ]: non-standard residue; d: D form. The star is where a group is joined. Decanoyl(3R-OH) = CCCCCCC[C@@H](O)CC(=O)*; d(aThr) = C[C@@H](O)[C@@H](N)C(=O)O; Dab = NCC[C@H](N)C(=O)O; Dhb = C/C=C(\N)C(=O)O
Assays:
[1] = system: Candida parapsilosis ATCC 22019; test: Broth dilution method (EUCAST); assay type: cell-based; details: Lodderomyces parapsilosis, ATCC22019; Candida parapsilosis ATCC 22019, EUCAST E.DEF 9.3.2; read-out: Result of the broth dilution method assay (MIC)
Description: (§1) The activity assay was performed using the broth dilution method according to the EUCAST DEFINITIVE DOCUMENT E.DEF 9.3.2. B. cinerea and A. solani were incubated according to the Methods for dilution antimicrobial susceptibility tests for bacteria that grow aerobically by the NCCLS. Keanumycin A was dissolved in DMSO.

[2] = system: Scedosporium apiospermum 2016-079; test: Broth dilution method (EUCAST); assay type: cell-based; details: 2016079; Scedosporium apiospermum 2016-079, EUCAST E.DEF 9.3.2; read-out: Result of the broth dilution method assay (MIC)
Description: as §1

[3] = system: Rhizopus arrhizus 2021-366; test: Broth dilution method (EUCAST); assay type: cell-based; details: 2021366; Rhizopus arrhizus 2021-366, EUCAST E.DEF 9.3.2; read-out: Result of the broth dilution method assay (MIC)
Description: as §1

[4] = system: Candida tropicalis 2021-360; test: Broth dilution method (EUCAST); assay type: cell-based; details: 2021360; Candida tropicalis 2021-360, EUCAST E.DEF 9.3.2; read-out: Result of the broth dilution method assay (MIC)
Description: as §1

Candida auris 2021-353 = test: Broth dilution method (EUCAST); assay type: cell-based; details: Candidozyma auris, 2021353; Candida auris 2021-353, EUCAST E.DEF 9.3.2; read-out: Result of the broth dilution method assay (MIC)
Description: as §1

[5] = system: Candida glabrata 2021-359; test: Broth dilution method (EUCAST); assay type: cell-based; details: Nakaseomyces glabratus, 2021359; Candida glabrata 2021-359, EUCAST E.DEF 9.3.2; read-out: Result of the broth dilution method assay (MIC)
Description: as §1

[6] = system: Fusarium proliferatum 2021-361; test: Broth dilution method (EUCAST); assay type: cell-based; details: 2021361; Fusarium proliferatum 2021-361, EUCAST E.DEF 9.3.2; read-out: Result of the broth dilution method assay (MIC)
Description: as §1

[7] = system: Aspergillus fumigatus ATCC 204305; test: Broth dilution method (EUCAST); assay type: cell-based; details: ATCC204305; Aspergillus fumigatus ATCC 204305, EUCAST E.DEF 9.3.2; read-out: Result of the broth dilution method assay (MIC)
Description: as §1

[8] = Stability of isolated keanumycin C; assay type: physicochemical; details: in solution or concentrated to dryness
Text: The inventors isolated keanumycin A (m/z 583.7892 [M+2H]2+ consistent with the molecular formula C49H84ClN11O19) and impure keanumycin B (m/z 575.7900 [M+2H]2+; C49H84ClN11O18), which could not be separated from an unknown metabolite (FIG. 1A). The inventors were also able to isolate keanumycin C (m/z 591.7866 [M+2H]2+; C49H84ClN11O20). […] Therefore, a detailed NMR analysis was only performed on keanumycin A. Important correlations in the ^1H, ^1H-correlation spectroscopy (COSY) experiment disclosed the presence of a 3,4-dihydroxylated linear fatty acid, which is a rare motif in NRLPs and only described for two other members of the syringomycin family (FIG. 2A). […] Saponification of keanumycin A under mild conditions led to the expected dechlorinated and linear lipopeptide 1, whose planar structure was confirmed by further HRMS2 experiments.

[9] = system: Botrytis cinerea SF011406; test: Broth dilution method (NCCLS); assay type: cell-based
Description: as §1

Bacillus subtilis = test: Disk diffusion test; assay type: cell-based; details: 5 μg/mL in water, 50 μL per 9 mm hole, 24 h 37 °C
Description: (§2) A qualitative screen of different microorganisms was performed using a disk diffusion test. Each microorganism was plated on Mueller Hinton agar plates and 9 mm holes were punched out. The respective compounds were dissolved in the indicated solvent to yield solutions of specified concentrations. 50 μL of the respective solutions were placed in each hole. The plates were incubated for 24 h at 37° C. After incubation, the size of inhibition zones was determined.

Escherichia coli = test: Disk diffusion test; assay type: cell-based; details: 5 μg/mL in water, 50 μL per 9 mm hole, 24 h 37 °C
Description: as §2

Mycobacterium vaccae = test: Disk diffusion test; assay type: cell-based; details: 5 μg/mL in water, 50 μL per 9 mm hole, 24 h 37 °C
Description: as §2

[10] = system: Staphylococcus aureus (MRSA) 134/94; test: Disk diffusion test; assay type: cell-based; details: 5 μg/mL in water, 50 μL per 9 mm hole, 24 h 37 °C
Description: as §2

[11] = system: Pseudomonas aeruginosa K799/61; test: Disk diffusion test; assay type: cell-based; details: 5 μg/mL in water, 50 μL per 9 mm hole, 24 h 37 °C
Description: as §2

[12] = system: Enterococcus faecalis (VRE) 1528; test: Disk diffusion test; assay type: cell-based; details: 5 μg/mL in water, 50 μL per 9 mm hole, 24 h 37 °C
Description: as §2

[13] = system: Pseudomonas aeruginosa SG 137; test: Disk diffusion test; assay type: cell-based; details: 5 μg/mL in water, 50 μL per 9 mm hole, 24 h 37 °C
Description: as §2

[14] = system: Staphylococcus aureus SG 511; test: Disk diffusion test; assay type: cell-based; details: 5 μg/mL in water, 50 μL per 9 mm hole, 24 h 37 °C
Description: as §2

C. albicans = test: Membrane permeabilization assay using SYTOX Green; assay type: cell-based, Candida albicans; details: 4 μg mL-1 in 1% DMSO
Text: Only isolated cells are stained, which can be explained by the fact that the dye can also be used to distinguish dead from live cells. Scale bar=100 μm.
To finally examine if keanumycin A is a membrane-active compound, the inventors performed a membrane permeabilization assay using SYTOX Green (FIG. 6). As a cell-impermeant dye, SYTOX Green enters the cell upon loss of membrane integrity and binds to DNA, which results in fluorescently stained cells. […] Thus, the keanumycins are membrane-active compounds that disturb the structure of the fungal […].

Candida strains = details: against Candida strains; cited from earlier work
Penicillium notatum = test: Disk diffusion test; assay type: cell-based; details: 10 μg/mL in DMSO/MeOH, 50 μL per 9 mm hole, 24 h 37 °C; methanol alone 10 mm
Description: as §2

Candida albicans = test: Disk diffusion test; assay type: cell-based; details: 10 μg/mL in DMSO/MeOH, 50 μL per 9 mm hole, 24 h 37 °C
Description: as §2

[15] = system: Sporobolomyces salmonicolor; test: Disk diffusion test; assay type: cell-based; details: 10 μg/mL in DMSO/MeOH, 50 μL per 9 mm hole, 24 h 37 °C; methanol alone 10 mm
Description: as §2

- MIC [1]: 0.03 µg/mL (≈ 0.0859 µM)
- MIC [2]: 1 µg/mL (≈ 2.86 µM)
- MIC [3]: > 8 µg/mL
- MIC [4]: 1 µg/mL (≈ 2.86 µM)
- MIC (Candida auris 2021-353): 1 µg/mL (≈ 2.86 µM)
- MIC [5]: 0.06 µg/mL (≈ 0.172 µM)
- MIC [6]: 8 µg/mL (≈ 22.9 µM)
- MIC [7]: 0.5 µg/mL (≈ 1.43 µM)
Molecule: C[C@@H](c1ncncc1F)[C@](O)(Cn1cncn1)c1ccc(F)cc1F [Voriconazol, reference compound]

Molecule: keanumycin C
- stability [8]: slowly degrades in solution or when concentrated to dryness

- MIC [1]: 0.06 µg/mL (≈ 0.0856 µM)
- MIC [2]: > 8 µg/mL
- MIC [3]: 4 µg/mL (≈ 5.71 µM)
- MIC [4]: 0.125 µg/mL (≈ 0.178 µM)
- MIC (Candida auris 2021-353): 0.06 µg/mL (≈ 0.0856 µM)
- MIC [5]: 0.25 µg/mL (≈ 0.357 µM)
- MIC [6]: > 8 µg/mL
- MIC [7]: 0.125 µg/mL (≈ 0.178 µM)
Molecule: CC[C@@H]([C@H](C)O)n1ncn(-c2ccc(N3CCN(c4ccc(OC[C@@H]5CO[C@@](Cn6cncn6)(c6ccc(F)cc6F)C5)cc4)CC3)cc2)c1=O [Posaconazol, reference compound]

- MIC [1]: 2 µg/mL (≈ 6.53 µM)
- MIC [4]: 64 µg/mL (≈ 209 µM)
- MIC (Candida auris 2021-353): < 64 µg/mL
- MIC [5]: 2 µg/mL (≈ 6.53 µM)
Molecule: OC(Cn1cncn1)(Cn1cncn1)c1ccc(F)cc1F [Fluconazol, reference compound]

Molecule: C/C=C(\NC(=O)[C@@H](CC(C)C)NC(=O)[C@@H](C)NC(=O)[C@H](NC(=O)[C@@H](C)NC(=O)[C@@H](CO)NC(=O)[C@H](NC(=O)[C@H](C)NC(=O)[C@@H](C)NC(=O)[C@@H](C)NC(=O)[C@H](NC(=O)[C@H](NC(=O)[C@H]1CCCN1C(=O)/C(=C/C)NC(=O)C[C@H](O)CCCCCCC)[C@H](C)CC)C(C)C)C(C)C)C(C)C)C(=O)N[C@H]1C(=O)N[C@@H](C)C(=O)N[C@@H](CCN)C(=O)N[C@H](CO)C(=O)N[C@@H](Cc2ccccc2)C(=O)O[C@@H]1C [jessenipeptin, reference compound] ({Decanoyl(3R-OH)}-[Dhb][dP][dI][dV][dA][dA]A[dV][dS][dA][dV][dA][dL][Dhb][d(aThr)]A[Dab][dS]F; ester 15-C)
- MIC ([9]; B. cinerea): 10 µg/mL
- MIC ([9]; Botrytis cinerea, NCCLS, 22 °C, read-out: MIC): 5.2 µM

Molecule: O=C(O)c1cn(C2CC2)c2cc(N3CCNCC3)c(F)cc2c1=O [Ciprofloxacin, reference compound]
- Inhibition area diameter (Bacillus subtilis): 29 mm
- Inhibition area diameter (Escherichia coli): 26 mm
- Inhibition area diameter (Mycobacterium vaccae): 22 mm
- Inhibition area diameter [10]: 0 mm
- Inhibition area diameter [11]: 28 mm
- Inhibition area diameter [12]: 16 mm
- Inhibition area diameter [13]: 26 mm
- Inhibition area diameter [14]: 17 mm

Molecule: tunicamycin [reference compound]
- membrane permeabilization (SYTOX Green staining) (C. albicans): membrane integrity of C. albicans is not disturbed
- membrane permeabilization (SYTOX Green staining) (C. albicans; listed as Tunicamycin): did not cause a loss of membrane integrity

Molecule: hassallidin D
- IC50 (Candida strains): 0.29 to 1 µM

Molecule: C[C@@H]1[C@H](O)[C@@H](C)/C=C/C=C/C=C/C=C/C=C/C=C/C=C/[C@H](O[C@@H]2O[C@H](C)[C@@H](O)[C@H](N)[C@@H]2O)C[C@@H]2O[C@](O)(C[C@@H](O)C[C@@H](O)[C@H](O)CC[C@@H](O)C[C@@H](O)CC(=O)O[C@H]1C)C[C@H](O)[C@H]2C(=O)O [Amphotericin B, reference compound]
- Inhibition area diameter (Penicillium notatum): 18 mm
- Inhibition area diameter (Candida albicans): 21 mm
- Inhibition area diameter [15]: 18 mm

— US20240391958A1, “KEANUMYCINS AND USES THEREOF IN MEDICINE AND PLANT PROTECTION” (Leibniz-Institut für Naturstoff-Forschung und …, priority 2023, published 2024)
